“And” between values parts separate entries of the source, which are not always exact repeats. Identical values can stand only once. Toxic doses and inconclusive results are not listed. Cut-off read from the data, not from the text of the source: active = T/C of 150% or more; inactive = T/C below 125%.
Test system: L1210 leukemia ip in BDF1 mice, survival T/C
Assay: NCI In Vivo Anticancer Drug Screen. Data for tumor model L1210 Leukemia (intraperitoneal) in B6D2F1 (BDF1) mice
Settings: endpoint: mean survival time, higher = longer survival
In short: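 Tumor was transplanted into mice, which were then dosed with test compound or vehicle alone. Survival was recorded for each group, and the treated figure was expressed relative to the control figure.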

Measured: T/C

COC(C(=O)C(O)C(C)O)C1Cc2cc3cc(OC4CC(OC(C)=O)C(OC5CC(O)C(OC)C(C)O5)C(C)O4)cc(O)c3c(O)c2C(=O)C1OC1CC(OC2CC(OC3CC(C)(O)C(OC(=O)C(C)C)C(C)O3)C(O)C(C)O2)C(O)C(C)O1 (centres undefined)
active: dose: 1.0 mg/kg/injection, schedule: Q01DX017 (ip), vehicle: carboxymethylcellulose (CMC) 163 % of control | dose: 1.0 mg/kg/injection, schedule: Q02DX009 (ip), vehicle: carboxymethylcellulose (CMC) 154 % of control | dose: 1.0 mg/kg/injection, schedule: Q#A X034 (ip), vehicle: carboxymethylcellulose (CMC) 170 % of control
inactive: dose: 0.09 mg/kg/injection, schedule: Q01DX017 (ip), vehicle: carboxymethylcellulose (CMC) 97 % of control | dose: 0.18 mg/kg/injection, schedule: Q01DX017 (ip), vehicle: carboxymethylcellulose (CMC) 109 % of control | dose: 0.18 mg/kg/injection, schedule: Q## X005 (ip), vehicle: carboxymethylcellulose (CMC) 98 % of control | dose: 0.2 mg/kg/injection, schedule: Q01DX015 (ip), vehicle: carboxymethylcellulose (CMC) 102 % of control | dose: 0.24 mg/kg/injection, schedule: Q## X024 (ip), vehicle: carboxymethylcellulose (CMC) 92 % of control | dose: 0.25 mg/kg/injection, schedule: Q01DX009 (ip), vehicle: other 103 % of control | dose: 0.25 mg/kg/injection, schedule: Q## X003 (ip), vehicle: carboxymethylcellulose (CMC) 94 % of control | dose: 0.25 mg/kg/injection, schedule: Q#A X034 (ip), vehicle: carboxymethylcellulose (CMC) 119 % of control | dose: 0.37 mg/kg/injection, schedule: Q01DX001 (ip), vehicle: carboxymethylcellulose (CMC) 101 % of control | dose: 0.37 mg/kg/injection, schedule: Q01DX010 (ip), vehicle: saline 116 % of control | dose: 0.37 mg/kg/injection, schedule: Q02DX005 (ip), vehicle: saline 101 % of control | dose: 0.37 mg/kg/injection, schedule: Q02DX009 (ip), vehicle: carboxymethylcellulose (CMC) 121 % of control | dose: 0.37 mg/kg/injection, schedule: Q## X003 (ip), vehicle: saline 98 % of control | dose: 0.37 mg/kg/injection, schedule: Q## X005 (ip), vehicle: carboxymethylcellulose (CMC) 107 % of control | dose: 0.4 mg/kg/injection, schedule: Q01DX015 (ip), vehicle: carboxymethylcellulose (CMC) 120 % of control | dose: 0.48 mg/kg/injection, schedule: Q## X024 (ip), vehicle: carboxymethylcellulose (CMC) 89 % of control | dose: 0.5 mg/kg/injection, schedule: Q01DX001 (ip), vehicle: saline 103 % of control | dose: 0.5 mg/kg/injection, schedule: Q01DX005 (ip), vehicle: carboxymethylcellulose (CMC) 106 % of control | dose: 0.5 mg/kg/injection, schedule: Q01DX006 (iv), vehicle: carboxymethylcellulose (CMC) 104 % of control | dose: 0.5 mg/kg/injection, schedule: Q01DX009 (ip), vehicle: carboxymethylcellulose (CMC) 113 % of control | dose: 0.5 mg/kg/injection, schedule: Q01DX009 (ip), vehicle: other 122 % of control | dose: 0.5 mg/kg/injection, schedule: Q01DX015 (im), vehicle: carboxymethylcellulose (CMC) 97 % of control | dose: 0.5 mg/kg/injection, schedule: Q01DX015 (sc), vehicle: carboxymethylcellulose (CMC) 95 % of control | dose: 0.5 mg/kg/injection, schedule: Q01DX Z (ip), vehicle: saline 123 % of control | dose: 0.5 mg/kg/injection, schedule: Q## X003 (ip), vehicle: carboxymethylcellulose (CMC) 93 % of control | dose: 0.75 mg/kg/injection, schedule: Q01DX001 (ip), vehicle: carboxymethylcellulose (CMC) 106 % of control | dose: 0.75 mg/kg/injection, schedule: Q02DX005 (ip), vehicle: saline 116 % of control | dose: 0.75 mg/kg/injection, schedule: Q## X003 (ip), vehicle: saline 105 % of control | dose: 0.75 mg/kg/injection, schedule: Q## X005 (ip), vehicle: carboxymethylcellulose (CMC) 117 % of control | dose: 1.0 mg/kg/injection, schedule: Q01DX001 (ip), vehicle: other 94 % of control | dose: 1.0 mg/kg/injection, schedule: Q01DX001 (ip), vehicle: saline 114 % of control and 115 % of control | dose: 1.0 mg/kg/injection, schedule: Q01DX005 (ip), vehicle: carboxymethylcellulose (CMC) 110 % of control | dose: 1.0 mg/kg/injection, schedule: Q01DX006 (iv), vehicle: carboxymethylcellulose (CMC) 96 % of control | dose: 1.0 mg/kg/injection, schedule: Q01DX009 (ip), vehicle: carboxymethylcellulose (CMC) 116 % of control | dose: 1.0 mg/kg/injection, schedule: Q01DX009 (ip), vehicle: other 114 % of control | dose: 1.0 mg/kg/injection, schedule: Q01DX015 (im), vehicle: carboxymethylcellulose (CMC) 101 % of control | dose: 1.0 mg/kg/injection, schedule: Q01DX015 (sc), vehicle: carboxymethylcellulose (CMC) 105 % of control | dose: 1.0 mg/kg/injection, schedule: Q01DX Z (ip), vehicle: saline 115 % of control | dose: 1.0 mg/kg/injection, schedule: Q## X002 (ip), vehicle: carboxymethylcellulose (CMC) 88 % of control | dose: 1.0 mg/kg/injection, schedule: Q## X003 (ip), vehicle: carboxymethylcellulose (CMC) 95 % of control | dose: 1.0 mg/kg/injection, schedule: Q## X008 (ip), vehicle: carboxymethylcellulose (CMC) 88 % of control | dose: 1.0 mg/kg/injection, schedule: Q## X024 (ip), vehicle: carboxymethylcellulose (CMC) 93 % of control | dose: 1.5 mg/kg/injection, schedule: Q01DX001 (ip), vehicle: carboxymethylcellulose (CMC) 117 % of control | dose: 1.5 mg/kg/injection, schedule: Q01DX001 (ip), vehicle: saline 114 % of control | dose: 1.5 mg/kg/injection, schedule: Q01DX013 (ip), vehicle: saline 124 % of control | dose: 1.5 mg/kg/injection, schedule: Q02DX005 (ip), vehicle: saline 122 % of control

Reference: PubChem BioAssay AID248 (DTP/NCI, 2004)
